Here are results for six molecules from ChEMBL document CHEMBL1201862, “PubChem BioAssay data set” (2004).

Activity calls are given as the source filed them.

A short description of experiment [1]: decrease of insulin promoter-GFP reporter – imaging, high-content screening, mouse beta cells (AID 1628). The settings on record: MIN6. It is filed as functional.
Experiment [2] can be described thus: MIN6 cell viability loss – mouse insulinoma, cytotoxicity control, dose response (AID 2122).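 Further: confirmatory high-throughput counterscreen run to flag cytotoxic compounds.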 It is filed as functional.
The target in another experiment is Protein Wnt-3a (Mus musculus, UniProt P27467). Kind of experiment: antagonism of Wnt3a pathway luciferase reporter – Wnt-LIGHT cells, luminescence, selectivity assay for Gli-SUFU antagonist project, dose response (AID 651570).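 Further: Wnt-LIGHT reporter cells stimulated with conditioned medium from Wnt3a-producing cells.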 It is filed as functional. As to conditions: read-out: IC50_Mean. A general note: Reporter assays use an easily measured gene product as a stand-in for the process of interest.

The target of experiment [3] is Voltage-dependent T-type calcium channel subunit alpha-1H (Homo sapiens, UniProt O95180). Kind of experiment: inhibition of CACNA1H calcium flux – cell-based, SynthLib3 library, HEK293 Cav3.2, fluorescence (AID 493041). Type of experiment: functional. A general note: Calcium assays in cells follow changes in intracellular calcium, usually with a dye or a luminescent sensor.

Experiment [4] has as its target Lysine-specific demethylase 4C (Homo sapiens, UniProt Q9H3R0). Kind of experiment: inhibition of JMJD2C H3K9me3 demethylation – biochemical, DELFIA europium, cherry-picked samples, dose response (AID 488835). It is filed as functional.
The target in experiment [5] is G-protein coupled receptor 55 (Homo sapiens, UniProt Q9Y2T6). Kind of experiment: blockers of GPR55 signalling, imaged – imaging, image-based, counter-screen for GPR35 antagonist project, SAR follow-up (AID 2397). It is filed as functional. (The purpose of a counterscreen is to sort out artefacts and off-target activity.)
Experiment [6] is described as follows: microbe, parasite or virus in culture. The settings on record: Mycobacterium tuberculosis. It is filed as functional.
For the next experiment, the target named is Exodeoxyribonuclease V (Escherichia coli (strain K12), UniProt P04993+P07648+P08394). Briefly: RecBCD inhibition via phage-restricted bacterial growth – absorbance, V66 E. coli, mutant T4 phage, counter-screen for AddAB inhibitor project, dose response (AID 492957). It is filed as functional, cell-based, Escherichia coli str. K-12 substr. MG1655.
The nature of experiment [7]: Luminescence Cell-Based Dose Retest to Confirm Inhibitors of Cancer Stem Cells. [Related pubchem assays (depositor defined):AID2717, AID2721]. It is filed as functional. As to conditions: Homo sapiens.
The nature of experiment [8]: Counterscreen for AddAB inhibitors: absorbance-based bacterial cell-based high throughput dose response assay for inhibitors of bacterial viability. [Related pubchem assays (depositor defined):AID435030, AID449728, AID449731, AID488942, AID488955, AID488956]. Type of experiment: functional.
The nature of experiment [9]: viability of uninfected HEp-2 cells – cell-based, HTS, cytotoxicity control for RSV inhibitor project, dose response (AID 2410). Type of experiment: functional. The settings on record: human respiratory syncytial virus.
In experiment [10] the target is Intestinal-type alkaline phosphatase (Mus musculus, UniProt P24822). Briefly: PubChem AID 488785. It is filed as functional.
Experiment [11] has as its target T1, Alkaline phosphatase, tissue-nonspecific isozyme (Homo sapiens, UniProt P05186).
T1 sequence (P05186 whole entry): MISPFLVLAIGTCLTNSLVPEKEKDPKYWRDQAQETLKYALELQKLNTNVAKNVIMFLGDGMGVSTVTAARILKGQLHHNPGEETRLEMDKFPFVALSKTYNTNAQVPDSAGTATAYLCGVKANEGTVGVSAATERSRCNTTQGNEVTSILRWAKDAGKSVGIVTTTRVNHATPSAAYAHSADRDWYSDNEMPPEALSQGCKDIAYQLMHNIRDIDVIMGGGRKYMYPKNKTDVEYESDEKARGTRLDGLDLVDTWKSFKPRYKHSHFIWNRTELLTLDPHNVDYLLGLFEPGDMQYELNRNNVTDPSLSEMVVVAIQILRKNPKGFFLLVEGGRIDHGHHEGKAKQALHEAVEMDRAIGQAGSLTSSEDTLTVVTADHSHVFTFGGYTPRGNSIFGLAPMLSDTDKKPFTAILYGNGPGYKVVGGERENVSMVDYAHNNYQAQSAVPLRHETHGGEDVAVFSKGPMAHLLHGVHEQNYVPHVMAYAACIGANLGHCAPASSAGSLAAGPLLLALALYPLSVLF
Briefly: TNAP enzyme inhibition by screening hits, dose response, selectivity assay for mouse IAP inhibitor project, biochemical, human TNAP, uHTS hits (AID 488906). Type of experiment: functional.

The target in experiment [12] is Intestinal-type alkaline phosphatase (Homo sapiens, UniProt P09923). Briefly: inhibition of human intestinal alkaline phosphatase – biochemical, dose response (AID 488876). It is filed as functional.
The test system of another experiment is Vero. Briefly: viability of Vero cells under compound – cytotoxicity control for flavivirus capping enzyme inhibitors (AID 588742). It is filed as functional. As to conditions: Chlorocebus sabaeus.
Experiment [13] can be described thus: cells. It is filed as functional, cell-based.
Experiment [14] has as its target T2, Trace amine-associated receptor 1 (Homo sapiens, UniProt Q96RJ0).
T2 sequence (Q96RJ0 whole entry): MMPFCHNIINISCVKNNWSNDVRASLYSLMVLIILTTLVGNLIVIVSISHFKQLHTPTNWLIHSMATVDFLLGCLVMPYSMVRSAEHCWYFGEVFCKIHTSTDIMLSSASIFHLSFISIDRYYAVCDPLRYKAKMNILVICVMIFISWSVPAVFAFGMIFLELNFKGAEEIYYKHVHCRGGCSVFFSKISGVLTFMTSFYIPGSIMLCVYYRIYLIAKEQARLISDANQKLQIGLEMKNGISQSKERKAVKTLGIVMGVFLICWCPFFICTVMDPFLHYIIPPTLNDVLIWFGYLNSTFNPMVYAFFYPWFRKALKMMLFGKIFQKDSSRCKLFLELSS
Kind of experiment: Fluorescence-based cell-based high throughput dose response assay to identify agonists of the human trace amine associated receptor 1 (TAAR1). Type of experiment: functional.

Experiment [15] concerns the target T2, Trace amine-associated receptor 1. Kind of experiment: Counterscreen for agonists of the human trace amine associated receptor 1 (hTAAR1): Fluorescence-based cell-based high throughput dose response assay to identify hTAAR1 agonist that also desensitize TAAR1 receptor response. It is filed as functional.
Experiment [16] in a line: cells. Type of experiment: functional, cell-based. The source holds these as a separate data set.
The next experiment deals with Caspase-6 (Homo sapiens, UniProt P55212). Kind of experiment: inhibition of CASP6 peptide cleavage – biochemical, VEID-R110 fluorescence, cherry-pick, dose response (AID 720632).
The target in experiment [17] is T3, Histone-lysine N-methyltransferase NSD2 (Homo sapiens, UniProt O96028).
T3 sequence (O96028 whole entry): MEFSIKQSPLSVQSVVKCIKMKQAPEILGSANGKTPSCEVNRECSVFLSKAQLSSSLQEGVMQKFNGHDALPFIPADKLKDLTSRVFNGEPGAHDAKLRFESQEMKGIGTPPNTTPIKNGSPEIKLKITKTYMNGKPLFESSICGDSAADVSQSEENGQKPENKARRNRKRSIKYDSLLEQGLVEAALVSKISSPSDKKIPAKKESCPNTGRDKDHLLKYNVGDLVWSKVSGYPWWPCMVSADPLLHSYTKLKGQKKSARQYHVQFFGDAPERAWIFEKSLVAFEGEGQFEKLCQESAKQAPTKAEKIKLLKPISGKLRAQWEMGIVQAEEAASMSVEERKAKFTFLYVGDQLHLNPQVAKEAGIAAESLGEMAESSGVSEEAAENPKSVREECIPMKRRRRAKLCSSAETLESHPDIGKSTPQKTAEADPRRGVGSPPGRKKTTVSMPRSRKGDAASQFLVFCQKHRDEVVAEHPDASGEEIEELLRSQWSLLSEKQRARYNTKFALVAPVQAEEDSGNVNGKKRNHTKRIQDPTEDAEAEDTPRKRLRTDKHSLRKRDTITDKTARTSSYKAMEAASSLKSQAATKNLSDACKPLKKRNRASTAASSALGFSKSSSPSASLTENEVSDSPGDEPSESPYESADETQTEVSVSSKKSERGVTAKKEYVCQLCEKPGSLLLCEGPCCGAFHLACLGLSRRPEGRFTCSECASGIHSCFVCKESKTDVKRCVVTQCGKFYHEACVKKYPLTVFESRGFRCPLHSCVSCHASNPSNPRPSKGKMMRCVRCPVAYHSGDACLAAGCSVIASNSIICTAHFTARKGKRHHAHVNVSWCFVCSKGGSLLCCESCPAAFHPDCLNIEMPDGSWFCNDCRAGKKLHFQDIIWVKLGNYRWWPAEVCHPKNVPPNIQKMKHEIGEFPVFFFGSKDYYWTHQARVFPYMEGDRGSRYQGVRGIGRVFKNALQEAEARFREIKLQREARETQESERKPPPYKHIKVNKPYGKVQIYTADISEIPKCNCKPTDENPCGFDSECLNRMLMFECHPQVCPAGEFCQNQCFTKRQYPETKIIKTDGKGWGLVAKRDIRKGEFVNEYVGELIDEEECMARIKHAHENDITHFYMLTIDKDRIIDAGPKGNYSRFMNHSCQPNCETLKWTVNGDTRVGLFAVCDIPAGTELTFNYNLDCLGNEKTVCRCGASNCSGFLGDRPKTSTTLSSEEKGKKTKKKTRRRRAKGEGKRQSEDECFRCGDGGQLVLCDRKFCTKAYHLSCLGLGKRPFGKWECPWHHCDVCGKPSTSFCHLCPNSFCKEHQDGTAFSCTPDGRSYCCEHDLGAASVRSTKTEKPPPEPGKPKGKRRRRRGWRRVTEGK
It is filed as biochemical.

The nature of experiment [18]: viability loss in THP-1 monocytes – THP-1 cells, cytotoxicity control for Vif-APOBEC3G degradation inhibitor project, dose response (AID 1117359). Type of experiment: functional. As to conditions: THP-1.

Sequence of Intestinal-type alkaline phosphatase (Mus musculus, UniProt P24822) (P24822 whole entry): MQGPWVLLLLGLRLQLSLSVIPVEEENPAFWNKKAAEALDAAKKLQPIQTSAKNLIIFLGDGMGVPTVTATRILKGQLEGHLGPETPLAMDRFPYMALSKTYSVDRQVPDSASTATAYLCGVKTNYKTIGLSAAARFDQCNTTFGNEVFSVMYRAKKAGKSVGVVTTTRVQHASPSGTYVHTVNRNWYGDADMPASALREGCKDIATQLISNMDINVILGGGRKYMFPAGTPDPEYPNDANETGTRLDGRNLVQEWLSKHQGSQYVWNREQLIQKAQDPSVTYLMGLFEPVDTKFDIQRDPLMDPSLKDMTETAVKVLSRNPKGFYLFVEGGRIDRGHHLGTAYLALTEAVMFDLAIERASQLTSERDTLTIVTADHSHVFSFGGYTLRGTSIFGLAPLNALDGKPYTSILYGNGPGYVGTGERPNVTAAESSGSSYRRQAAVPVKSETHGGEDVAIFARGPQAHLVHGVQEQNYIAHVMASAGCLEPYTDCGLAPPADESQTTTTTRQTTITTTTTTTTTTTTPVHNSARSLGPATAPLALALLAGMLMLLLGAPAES
Sequence of Intestinal-type alkaline phosphatase (Homo sapiens, UniProt P09923) (P09923 whole entry): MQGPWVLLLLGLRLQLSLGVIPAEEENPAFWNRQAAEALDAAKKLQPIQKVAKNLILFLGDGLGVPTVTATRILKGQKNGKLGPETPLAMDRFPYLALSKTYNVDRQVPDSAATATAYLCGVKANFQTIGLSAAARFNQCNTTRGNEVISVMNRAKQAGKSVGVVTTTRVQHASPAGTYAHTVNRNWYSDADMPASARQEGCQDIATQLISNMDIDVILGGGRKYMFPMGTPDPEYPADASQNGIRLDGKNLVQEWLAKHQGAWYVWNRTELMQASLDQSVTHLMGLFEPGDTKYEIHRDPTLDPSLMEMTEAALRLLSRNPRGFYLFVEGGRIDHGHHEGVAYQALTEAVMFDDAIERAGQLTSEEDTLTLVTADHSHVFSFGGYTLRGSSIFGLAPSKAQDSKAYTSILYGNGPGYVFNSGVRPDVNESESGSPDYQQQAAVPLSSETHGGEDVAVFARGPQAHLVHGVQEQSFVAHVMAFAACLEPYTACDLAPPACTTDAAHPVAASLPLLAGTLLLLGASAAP
Sequence of Exodeoxyribonuclease V (P04993 whole entry): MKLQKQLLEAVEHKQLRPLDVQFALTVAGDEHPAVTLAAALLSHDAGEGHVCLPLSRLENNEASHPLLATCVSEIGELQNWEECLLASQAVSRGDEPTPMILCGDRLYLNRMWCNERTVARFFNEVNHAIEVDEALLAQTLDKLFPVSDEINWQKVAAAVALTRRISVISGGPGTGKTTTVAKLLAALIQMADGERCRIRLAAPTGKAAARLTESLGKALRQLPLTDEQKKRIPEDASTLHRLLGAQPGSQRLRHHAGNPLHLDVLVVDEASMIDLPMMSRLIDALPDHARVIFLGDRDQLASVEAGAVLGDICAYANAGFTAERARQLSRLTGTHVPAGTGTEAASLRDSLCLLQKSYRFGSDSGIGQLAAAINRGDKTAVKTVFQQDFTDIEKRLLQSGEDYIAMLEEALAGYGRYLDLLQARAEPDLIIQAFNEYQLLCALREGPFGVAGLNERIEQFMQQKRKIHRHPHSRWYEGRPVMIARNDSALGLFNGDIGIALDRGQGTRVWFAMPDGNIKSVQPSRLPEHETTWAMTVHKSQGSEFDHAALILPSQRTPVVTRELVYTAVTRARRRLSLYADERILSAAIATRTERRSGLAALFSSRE
Sequence of Exodeoxyribonuclease V (P07648 whole entry): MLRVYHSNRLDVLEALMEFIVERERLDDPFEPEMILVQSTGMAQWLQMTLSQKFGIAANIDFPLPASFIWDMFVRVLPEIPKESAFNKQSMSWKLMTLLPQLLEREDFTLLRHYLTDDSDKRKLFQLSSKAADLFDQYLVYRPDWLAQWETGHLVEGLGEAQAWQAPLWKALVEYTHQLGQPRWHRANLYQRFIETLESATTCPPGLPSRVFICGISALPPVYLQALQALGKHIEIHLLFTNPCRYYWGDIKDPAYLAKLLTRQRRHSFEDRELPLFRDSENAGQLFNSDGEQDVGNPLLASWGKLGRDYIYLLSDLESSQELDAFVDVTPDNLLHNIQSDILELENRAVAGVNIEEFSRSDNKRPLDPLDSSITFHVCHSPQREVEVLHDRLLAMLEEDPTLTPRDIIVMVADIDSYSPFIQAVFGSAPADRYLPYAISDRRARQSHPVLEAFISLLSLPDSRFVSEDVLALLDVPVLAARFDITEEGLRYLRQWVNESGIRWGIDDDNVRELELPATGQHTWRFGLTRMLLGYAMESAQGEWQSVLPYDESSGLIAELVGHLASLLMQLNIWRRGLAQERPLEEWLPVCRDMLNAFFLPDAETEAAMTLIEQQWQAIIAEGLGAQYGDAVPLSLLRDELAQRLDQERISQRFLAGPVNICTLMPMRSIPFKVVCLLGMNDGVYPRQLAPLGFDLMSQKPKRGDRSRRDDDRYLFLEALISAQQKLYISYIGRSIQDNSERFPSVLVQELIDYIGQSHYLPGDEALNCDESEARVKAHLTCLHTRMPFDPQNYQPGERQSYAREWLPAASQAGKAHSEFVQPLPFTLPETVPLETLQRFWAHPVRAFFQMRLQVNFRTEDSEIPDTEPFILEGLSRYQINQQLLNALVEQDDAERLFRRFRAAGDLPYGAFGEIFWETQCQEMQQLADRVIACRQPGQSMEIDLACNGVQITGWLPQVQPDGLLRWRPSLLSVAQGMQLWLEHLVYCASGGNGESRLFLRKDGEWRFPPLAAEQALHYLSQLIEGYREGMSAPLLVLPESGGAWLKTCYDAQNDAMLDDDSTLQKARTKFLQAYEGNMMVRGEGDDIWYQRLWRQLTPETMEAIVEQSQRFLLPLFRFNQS
Sequence of Exodeoxyribonuclease V (P08394 whole entry): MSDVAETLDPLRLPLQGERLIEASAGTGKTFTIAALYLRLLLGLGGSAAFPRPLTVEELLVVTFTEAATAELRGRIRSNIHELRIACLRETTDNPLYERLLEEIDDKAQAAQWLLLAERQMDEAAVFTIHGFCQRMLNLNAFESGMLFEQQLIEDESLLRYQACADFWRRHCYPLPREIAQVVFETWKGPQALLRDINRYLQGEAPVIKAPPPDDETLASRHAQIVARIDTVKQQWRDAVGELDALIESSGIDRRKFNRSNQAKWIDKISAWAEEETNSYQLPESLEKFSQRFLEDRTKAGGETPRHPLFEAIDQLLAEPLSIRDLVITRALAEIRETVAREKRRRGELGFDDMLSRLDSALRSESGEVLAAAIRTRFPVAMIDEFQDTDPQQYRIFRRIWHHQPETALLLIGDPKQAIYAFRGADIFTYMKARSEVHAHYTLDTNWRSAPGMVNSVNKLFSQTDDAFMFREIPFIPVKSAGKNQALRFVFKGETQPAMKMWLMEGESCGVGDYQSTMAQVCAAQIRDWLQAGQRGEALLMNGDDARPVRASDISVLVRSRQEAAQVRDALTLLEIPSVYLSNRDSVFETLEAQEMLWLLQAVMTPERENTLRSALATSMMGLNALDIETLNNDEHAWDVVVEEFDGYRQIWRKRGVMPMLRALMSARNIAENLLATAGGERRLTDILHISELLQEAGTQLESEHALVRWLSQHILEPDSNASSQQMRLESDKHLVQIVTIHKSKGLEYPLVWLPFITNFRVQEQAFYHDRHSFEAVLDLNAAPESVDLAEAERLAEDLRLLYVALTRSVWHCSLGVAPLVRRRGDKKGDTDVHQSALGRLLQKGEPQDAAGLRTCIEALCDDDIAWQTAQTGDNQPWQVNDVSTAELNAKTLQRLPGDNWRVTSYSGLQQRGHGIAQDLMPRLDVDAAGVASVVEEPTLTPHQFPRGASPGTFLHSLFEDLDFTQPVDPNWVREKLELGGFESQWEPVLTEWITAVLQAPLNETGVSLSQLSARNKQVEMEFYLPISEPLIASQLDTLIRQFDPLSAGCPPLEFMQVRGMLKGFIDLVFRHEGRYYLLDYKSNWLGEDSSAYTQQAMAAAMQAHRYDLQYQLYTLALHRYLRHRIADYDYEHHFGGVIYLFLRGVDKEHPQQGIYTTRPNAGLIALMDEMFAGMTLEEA
Sequence of G-protein coupled receptor 55 (Q9Y2T6 whole entry): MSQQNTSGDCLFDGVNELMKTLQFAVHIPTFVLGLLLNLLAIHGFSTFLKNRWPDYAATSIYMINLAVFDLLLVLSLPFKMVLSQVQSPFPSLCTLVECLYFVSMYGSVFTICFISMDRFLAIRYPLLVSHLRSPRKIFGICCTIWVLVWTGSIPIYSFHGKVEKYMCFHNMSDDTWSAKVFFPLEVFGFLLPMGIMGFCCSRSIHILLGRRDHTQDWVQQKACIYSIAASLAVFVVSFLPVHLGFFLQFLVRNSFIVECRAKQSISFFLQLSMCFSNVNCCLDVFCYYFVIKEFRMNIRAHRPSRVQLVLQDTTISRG
Sequence of Protein Wnt-3a (P27467 whole entry): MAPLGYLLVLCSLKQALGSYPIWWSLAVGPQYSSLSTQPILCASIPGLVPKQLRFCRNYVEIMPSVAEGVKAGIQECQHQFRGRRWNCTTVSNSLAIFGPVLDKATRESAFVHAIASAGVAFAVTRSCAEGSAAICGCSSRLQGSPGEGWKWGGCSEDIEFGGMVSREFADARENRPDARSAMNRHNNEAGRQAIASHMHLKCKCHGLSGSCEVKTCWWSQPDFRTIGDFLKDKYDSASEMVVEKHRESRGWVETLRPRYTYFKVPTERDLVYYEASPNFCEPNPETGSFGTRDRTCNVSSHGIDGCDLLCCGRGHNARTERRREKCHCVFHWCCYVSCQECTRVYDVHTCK
Sequence of Caspase-6 (P55212 24-179 limits assumed): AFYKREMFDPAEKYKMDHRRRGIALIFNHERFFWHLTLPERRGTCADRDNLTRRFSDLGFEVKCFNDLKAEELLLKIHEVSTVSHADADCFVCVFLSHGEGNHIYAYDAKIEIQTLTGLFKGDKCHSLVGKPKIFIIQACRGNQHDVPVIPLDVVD
Sequence of Caspase-6 (P55212 194-293 limits assumed): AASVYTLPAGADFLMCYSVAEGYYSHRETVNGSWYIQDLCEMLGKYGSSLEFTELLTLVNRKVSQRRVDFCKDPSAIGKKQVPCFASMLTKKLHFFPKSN

Regarding `COc1ccc(NS(=O)(=O)c2ccc(NC(C)=O)cc2)cc1OC`, the IC50 in [1] is 3.44 µM (active); in experiment [2], 2.22 µM (active); on Protein Wnt-3a, 12 µM (active).

By EC50 is commonly meant the midpoint of the concentration-response curve. In the case of `CC(C)Cc1nnc(NC(=O)COc2ccc(F)cc2Cl)o1`, the 50% effective concentration (EC50) in experiment [3] is 10 µM (active).

One may read the AC50 as the concentration at which the activity in the assay is half-maximal. In the case of `CS(=O)(=O)N(CC(=O)NCc1ccco1)c1ccccc1Cl`, in experiment [4], the AC50 was 18.4 µM (active).

`Cc1ccc(OCCC(=O)NCCc2ccc(S(N)(=O)=O)cc2)cc1`: the IC50 in [5] is > 32 µM (inactive).

As to `O=C(CSc1[nH]cnc2ncnc1-2)c1ccc(Cl)cc1`, in [6], the CC50 was > 40 µM (active). For the same molecule, the IC50 on Exodeoxyribonuclease V is > 119 µM (inactive); in experiment [8] it was 61.1 µM (inactive). Further, the concentration at half-maximal activity (AC50) in experiment [7] was 2.81 µM (active).

Take `O=[N+]([O-])c1ccccc1NC(=S)N/N=C/c1ccc(O)c(O)c1`: the CC50 in experiment [9] was 11.7 µM (active); in the experiment on Vero, 22.8 µM (active); in experiment [18] it was 25.5 µM (active). Besides, the IC50 in [10] was 0.216 µM (active); in experiment [11] it was 1.53 µM (active); in experiment [12], > 100 µM (inactive); in the experiment “cells [13]”, 23.5 µM (inactive); in experiment [15], 7.2 µM (active). Also, the concentration giving a half-maximal response (EC50) in [14] was 4.15 µM (active); in “cells [16]”, > 29.9 µM (inactive). The AC50 at Caspase-6 is 1.56 µM (active); in experiment [17] it was 1.34 µM (active).
